Structures are written as SMILES.

The experiment concerns the target T1, Cbl-b (Homo sapiens, UniProt Q13191).
T1 construct: biotin (biotinylated protein)
Kind of experiment: Cbl-b probe displacement HTRF binding assay. To be noted: 0.4 nM Cbl-b, 150 nM BODIPY probe. In outline:
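Compound competes with BODIPY probe (150 nM) for biotinylated Cbl-b (0.4 nM) in HEPES/NaCl/Triton/TCEP/BSA buffer; 60 min preincubation, 15 min with probe, room temperature. Tb-streptavidin HTRF read; % displacement vs DMSO and no-protein controls, IC50 from four-parameter fit.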
For orientation: TR-FRET usually uses a lanthanide donor and a delayed reading to cut background.

T1 sequence (Q13191 whole entry, species assumed): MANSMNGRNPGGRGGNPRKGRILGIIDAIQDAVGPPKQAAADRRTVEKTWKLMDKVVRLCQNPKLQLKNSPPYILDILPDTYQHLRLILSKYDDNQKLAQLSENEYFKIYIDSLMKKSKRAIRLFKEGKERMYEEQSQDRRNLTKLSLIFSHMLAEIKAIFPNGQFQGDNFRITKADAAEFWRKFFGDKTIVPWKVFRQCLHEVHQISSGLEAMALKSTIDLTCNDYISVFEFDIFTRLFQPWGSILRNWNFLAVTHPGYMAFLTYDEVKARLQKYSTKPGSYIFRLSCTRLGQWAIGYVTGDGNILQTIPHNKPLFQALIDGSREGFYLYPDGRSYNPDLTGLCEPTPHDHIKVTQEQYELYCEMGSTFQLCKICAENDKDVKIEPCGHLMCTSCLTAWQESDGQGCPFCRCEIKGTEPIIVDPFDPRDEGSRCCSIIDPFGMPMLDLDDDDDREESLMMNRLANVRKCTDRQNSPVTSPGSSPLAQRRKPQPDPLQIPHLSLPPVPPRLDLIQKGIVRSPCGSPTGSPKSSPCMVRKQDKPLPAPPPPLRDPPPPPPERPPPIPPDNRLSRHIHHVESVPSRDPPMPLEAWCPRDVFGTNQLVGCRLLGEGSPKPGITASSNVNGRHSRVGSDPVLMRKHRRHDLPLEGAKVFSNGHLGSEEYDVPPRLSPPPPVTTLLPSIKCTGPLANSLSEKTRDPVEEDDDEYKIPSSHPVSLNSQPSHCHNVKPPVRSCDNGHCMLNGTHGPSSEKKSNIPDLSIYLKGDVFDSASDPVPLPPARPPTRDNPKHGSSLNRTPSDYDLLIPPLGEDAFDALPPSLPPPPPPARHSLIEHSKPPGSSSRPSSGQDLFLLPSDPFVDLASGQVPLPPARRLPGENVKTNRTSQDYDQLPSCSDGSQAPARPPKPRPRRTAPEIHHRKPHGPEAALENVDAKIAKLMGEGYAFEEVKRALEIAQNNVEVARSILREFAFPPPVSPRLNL

On to `CO[C@@H](C)CNCc1cc(C(=O)Nc2cc(-c3ccc(Cl)cc3C(=O)N3CC(F)(F)C3)cc(NC(C)C)n2)c(=O)n(C)c1` [Example 169], for which the IC50 is < 100 nM. To `CCn1cc(CNC[C@H](C)OC)cc(C(=O)Nc2cc(-c3ccc(C#N)cc3C(=O)N3CC(F)(F)C3)cc(C3CC3)n2)c1=O` [Example 170] belongs < 100 nM; to `COC[C@H](C)NCc1cc(C(=O)Nc2cc(-c3ccc(C#N)cc3C(=O)N3CC(F)(F)C3)cc(C3CC3)n2)c(=O)n(C)c1` [Example 171], < 100 nM; to `CCNc1cc(-c2ccc(Cl)cc2C(=O)N2CC(F)(F)C2)cc(NC(=O)c2cc(CNC[C@H](C)OC)cn(C)c2=O)n1` [Example 172], < 100 nM. Take `Cn1cc(CNC[C@@H]2CCCO2)cc(C(=O)Nc2cc(-c3ccc(C#N)cc3C(=O)N3CC(F)(F)C3)cc(C3CC3)n2)c1=O` [Example 173]: the IC50 is < 100 nM. `CO[C@@H](C)CNCc1cc(C(=O)Nc2cc(-c3ccc(C#N)cc3C(=O)N3CC(F)(F)C3)cc(C3CC3)n2)c(=O)n(CC(F)(F)F)c1` [Example 174]: the IC50 was < 100 nM. As to `CC(C)CNCc1cc(C(=O)Nc2cc(-c3ccc(C#N)cc3C(=O)N3CC(F)(F)C3)cc(C3CC3)n2)c(=O)n(C)c1` [Example 175], the IC50 is < 100 nM. Next, `CO[C@@H](C)CNCc1cc(C(=O)Nc2cc(-c3ccc(OC(F)F)cc3C(=O)N3CC(F)(F)C3)cc(C3CC3)n2)c(=O)n(C)c1` [Example 176]: < 100 nM.

For the molecule `CO[C@@H](C)CNCc1cc(C(=O)Nc2cc(-c3c(F)cc(Cl)cc3C(=O)N3CC(F)(F)C3)cc(C3CC3)n2)c(=O)n(C)c1` [Example 177], the IC50 was < 100 nM. On to `CO[C@@H](C)CNCc1cc(C(=O)Nc2cc(-c3ccc(C#N)cc3C(=O)N3CC(F)(F)C3)cc(C3CC3)n2)c(=O)n(C)c1` [Example 178], for which the IC50 is < 100 nM.

Turning to `N#Cc1ccc(-c2cc(NC(=O)c3cc(CNC[C@@H]4CCCO4)cn(CC(F)(F)F)c3=O)nc(C3CC3)c2)c(C(=O)N2CC(F)(F)C2)c1` [Example 179], the IC50 is < 100 nM. For the molecule `CCOc1cc(-c2ccc(Cl)cc2C(=O)N2CC(F)(F)C2)cc(NC(=O)c2cc(CNC[C@H](C)OC)cn(C)c2=O)n1` [Example 180], the IC50 is < 100 nM.

Consider `CCOc1cc(-c2ccc(C#N)cc2C(=O)N2CC(F)(F)C2)cc(NC(=O)c2cc(CNC[C@H](C)OC)cn(C)c2=O)n1` [Example 181], for which the IC50 is < 100 nM. `CCNc1cc(-c2ccc(Cl)cc2C(=O)N2CC(F)(F)C2)cc(NC(=O)c2cc(CNC[C@@H]3CCCO3)cn(C)c2=O)n1` [Example 182]: the IC50 is < 100 nM. Take `CCOc1cc(-c2ccc(C#N)cc2C(=O)N2CC(F)(F)C2)cc(NC(=O)c2cc(CNC[C@@H]3CCCO3)cn(C)c2=O)n1` [Example 183]: the IC50 was < 100 nM. Regarding `CCNc1cc(-c2ccc(Cl)cc2C(=O)N2CC(F)(F)C2)cc(NC(=O)c2cc(CNCC(C)C)cn(C)c2=O)n1` [Example 184], the IC50 was < 100 nM.

Regarding `Cn1cc(CNC[C@@H]2CCCO2)cc(C(=O)Nc2cc(-c3ccc(OC(F)F)cc3C(=O)N3CC(F)(F)C3)cc(C3CC3)n2)c1=O` [Example 185], the IC50 is < 100 nM. Take `CCn1cc(CNC[C@@H]2CCCO2)cc(C(=O)Nc2cc(-c3ccc(C#N)cc3C(=O)N3CC(F)(F)C3)cc(C3CC3)n2)c1=O` [Example 186]: the IC50 is < 100 nM. Regarding `COCCNCc1cc(C(=O)Nc2cc(-c3ccc(C#N)cc3C(=O)N3CC(F)(F)C3)cc(C3CC3)n2)c(=O)n(C)c1` [Example 187], the IC50 is < 100 nM.

Consider `C[C@H](NCc1cc(C(=O)Nc2cc(-c3ccc(C#N)cc3C(=O)N3CC(F)(F)C3)cc(C3CC3)n2)c(=O)n(CC(F)(F)F)c1)C1CC1` [Example 188], for which the IC50 was < 100 nM. Regarding `CCn1cc(CNCC2CC2)cc(C(=O)Nc2cc(-c3ccc(C#N)cc3C(=O)N3CC(F)(F)C3)cc(C3CC3)n2)c1=O` [Example 189], the IC50 is < 100 nM. For the molecule `Cn1cc(CNC[C@@H]2CCCCO2)cc(C(=O)Nc2cc(-c3ccc(C#N)cc3C(=O)N3CC(F)(F)C3)cc(C3CC3)n2)c1=O` [Example 190], the IC50 is < 100 nM. To `CO[C@@H](C)CNCc1cc(C(=O)Nc2cc(-c3ccc(C#N)cc3C(=O)N3CC(F)(F)C3)cc(N(C)C)n2)c(=O)n(C2CC2)c1` [Example 191] belongs < 100 nM; to `Cn1cc(CNCC2CC2)cc(C(=O)Nc2cc(-c3ccc(C#N)cc3C(=O)N3CC(F)(F)C3)cc(C3CC3)n2)c1=O` [Example 192], < 100 nM. To `CC(C)CNCc1cc(C(=O)Nc2cc(-c3ccc(C#N)cc3C(=O)N3CC(F)(F)C3)cc(N(C)C)n2)c(=O)n(C2CC2)c1` [Example 193] belongs < 100 nM. As for `COCCNCc1cc(C(=O)Nc2cc(-c3ccc(C#N)cc3C(=O)N3CC(F)(F)C3)cc(C3CC3)n2)c(=O)n(CC(F)(F)F)c1` [Example 194], the IC50 was < 100 nM. As for `CO[C@@H](C)CNCc1cc(C(=O)Nc2cc(-c3ccc(C#N)cc3C(=O)N3CC(F)(F)C3)cc(OC3CC3)n2)c(=O)n(C2CC2)c1` [Example 195], the IC50 was < 100 nM. On to `CCOc1cc(-c2ccc(C#N)cc2C(=O)N2CC(F)(F)C2)cc(NC(=O)c2cc(CN[C@@H](C)C3CCC3)cn(C3CC3)c2=O)n1` [Example 196], for which the IC50 is < 100 nM. `CO[C@@H](C)CNCc1cc(C(=O)Nc2cc(-c3ccc(OC(F)F)cc3C(=O)N3CC(F)(F)C3)cc(OC(C)C)n2)c(=O)n(C2CC2)c1` [Example 197]: the IC50 is < 100 nM. `CO[C@@H](C)CNCc1cc(C(=O)Nc2cc(-c3c(F)cc(Cl)cc3C(=O)N3CC(F)(F)C3)cc(NC(C)C)n2)c(=O)n(C2CC2)c1` [Example 198]: the IC50 was < 100 nM. Consider `CCOc1cc(-c2c(F)cc(Cl)cc2C(=O)N2CC(F)(F)C2)cc(NC(=O)c2cc(CNC[C@H](C)OC)cn(C3CC3)c2=O)n1` [Example 199], for which the IC50 was < 100 nM. Turning to `CC(C)Nc1cc(-c2c(F)cc(Cl)cc2C(=O)N2CC(F)(F)C2)cc(NC(=O)c2cc(CN[C@@H](C)C3CCC3)cn(C3CC3)c2=O)n1` [Example 200], the IC50 was < 100 nM. For the molecule `CC(C)CNCc1cc(C(=O)Nc2cc(-c3c(F)cc(Cl)cc3C(=O)N3CC(F)(F)C3)cc(NC(C)C)n2)c(=O)n(C2CC2)c1` [Example 201], the IC50 was < 100 nM. Next, `CCOc1cc(-c2ccc(C#N)cc2C(=O)N2CC(F)(F)C2)cc(NC(=O)c2cc(CNCC(C)C)cn(C3CC3)c2=O)n1` [Example 202]: < 100 nM.

For `CCOc1cc(-c2c(F)cc(Cl)cc2C(=O)N2CC(F)(F)C2)cc(NC(=O)c2cc(CN[C@@H](C)[C@H](C)OC)cn(C3CC3)c2=O)n1` [Example 203], the IC50 was < 100 nM.

Take `CC(C)Nc1cc(-c2c(F)cc(Cl)cc2C(=O)N2CC(F)(F)C2)cc(NC(=O)c2cc(CN[C@@H](C)C3CC3)cn(C3CC3)c2=O)n1` [Example 204]: the IC50 is < 100 nM. For the molecule `CO[C@@H](C)[C@H](C)NCc1cc(C(=O)Nc2cc(-c3ccc(OC(F)F)cc3C(=O)N3CC(F)(F)C3)cc(OC(C)C)n2)c(=O)n(C2CC2)c1` [Example 205], the IC50 is < 100 nM. Regarding `CCOc1cc(-c2ccc(C#N)cc2C(=O)N2CC(F)(F)C2)cc(NC(=O)c2cc(CNC[C@H](C)OC)cn(C3CC3)c2=O)n1` [Example 206], the IC50 is < 100 nM.

As to `CCOc1cc(-c2c(F)cc(Cl)cc2C(=O)N2CC(F)(F)C2)cc(NC(=O)c2cc(CN[C@@H](C)C3CCC3)cn(C3CC3)c2=O)n1` [Example 207], the IC50 was < 100 nM. As to `CC(C)Nc1cc(-c2c(F)cc(Cl)cc2C(=O)N2CC(F)(F)C2)cc(NC(=O)c2cc(CNC[C@@H]3CCCO3)cn(C3CC3)c2=O)n1` [Example 208], the IC50 is < 100 nM.

For `CC(C)Oc1cc(-c2ccc(OC(F)F)cc2C(=O)N2CC(F)(F)C2)cc(NC(=O)c2cc(CNC[C@@H]3CCCO3)cn(C3CC3)c2=O)n1` [Example 209], the IC50 was < 100 nM.

For `CCOc1cc(-c2c(F)cc(Cl)cc2C(=O)N2CC(F)(F)C2)cc(NC(=O)c2cc(CNC[C@@H]3CCCO3)cn(C3CC3)c2=O)n1` [Example 210], the IC50 is < 100 nM.

As to `CC(C)CNCc1cc(C(=O)Nc2cc(-c3ccc(C#N)cc3C(=O)N3CC(F)(F)C3)cc(OC(C)C)n2)c(=O)n(C)c1` [Example 211], the IC50 is < 100 nM.

`CCOc1cc(-c2ccc(C#N)cc2C(=O)N2CC(F)(F)C2)cc(NC(=O)c2cc(CNC[C@@H]3CCCO3)cn(C3CC3)c2=O)n1` [Example 212]: the IC50 was < 100 nM.

With `CCOc1cc(-c2c(F)cc(Cl)cc2C(=O)N2CC(F)(F)C2)cc(NC(=O)c2cc(CNCC(C)C)cn(C3CC3)c2=O)n1` [Example 213], the concentration for half-maximal inhibition (IC50) was < 100 nM. Take `CC(C)Oc1cc(-c2ccc(C#N)cc2C(=O)N2CC(F)(F)C2)cc(NC(=O)c2cc(CN[C@@H](C)C(C)C)cn(C)c2=O)n1` [Example 214]: the IC50 was < 100 nM.

Regarding `CO[C@@H](C)CNCc1cc(C(=O)Nc2cc(-c3cc(F)c(Cl)cc3C(=O)N3CC(F)(F)C3)cc(C3CC3)n2)c(=O)n(C2CC2)c1` [Example 215], the IC50 was < 100 nM.

Take `C[C@H](NCc1cc(C(=O)Nc2cc(-c3cc(F)c(Cl)cc3C(=O)N3CC(F)(F)C3)cc(C3CC3)n2)c(=O)n(C2CC2)c1)C1CCC1` [Example 216]: the IC50 was < 100 nM. Take `CO[C@@H](C)CNCc1cc(C(=O)Nc2cc(-c3ccc(Cl)cc3C(=O)N3CC(F)(F)C3)cc(NC(C)C)n2)c(=O)n(C2CC2)c1` [Example 217]: the IC50 was < 100 nM.

Consider `C[C@H](NCc1cc(C(=O)Nc2cc(-c3c(F)cc(C#N)cc3C(=O)N3CC(F)(F)C3)cc(C3CC3)n2)c(=O)n(C2CC2)c1)C1CCC1` [Example 218], for which the IC50 is < 100 nM. Consider `CC(C)Nc1cc(-c2ccc(Cl)cc2C(=O)N2CC(F)(F)C2)cc(NC(=O)c2cc(CN[C@@H](C)C3CC3)cn(C3CC3)c2=O)n1` [Example 219], for which the IC50 was < 100 nM. Turning to `CC(C)Nc1cc(-c2ccc(Cl)cc2C(=O)N2CC(F)(F)C2)cc(NC(=O)c2cc(CN[C@@H](C)C3CCC3)cn(C3CC3)c2=O)n1` [Example 221], the 50% inhibitory concentration (IC50) is < 100 nM. Take `CO[C@@H](C)[C@H](C)NCc1cc(C(=O)Nc2cc(-c3c(F)cc(C#N)cc3C(=O)N3CC(F)(F)C3)cc(OC(C)C)n2)c(=O)n(C2CC2)c1` [Example 222]: the IC50 is < 100 nM.

What is called IC50 is the concentration that inhibits the measured activity by half. A lower IC50 goes with greater potency in that assay.

The record behind these values is patent publication US20260116868A1 (Arcus Biosciences, Inc., priority 2023, published 2026).
